{"source": "ChEMBL document CHEMBL5726258", "about": "“Pyrimidine PDE10 inhibitors” (2017)"}
{"target": "cAMP and cAMP-inhibited cGMP 3',5'-cyclic phosphodiesterase 10A (Homo sapiens, UniProt Q9Y233)", "sequence (Q9Y233 whole entry)": "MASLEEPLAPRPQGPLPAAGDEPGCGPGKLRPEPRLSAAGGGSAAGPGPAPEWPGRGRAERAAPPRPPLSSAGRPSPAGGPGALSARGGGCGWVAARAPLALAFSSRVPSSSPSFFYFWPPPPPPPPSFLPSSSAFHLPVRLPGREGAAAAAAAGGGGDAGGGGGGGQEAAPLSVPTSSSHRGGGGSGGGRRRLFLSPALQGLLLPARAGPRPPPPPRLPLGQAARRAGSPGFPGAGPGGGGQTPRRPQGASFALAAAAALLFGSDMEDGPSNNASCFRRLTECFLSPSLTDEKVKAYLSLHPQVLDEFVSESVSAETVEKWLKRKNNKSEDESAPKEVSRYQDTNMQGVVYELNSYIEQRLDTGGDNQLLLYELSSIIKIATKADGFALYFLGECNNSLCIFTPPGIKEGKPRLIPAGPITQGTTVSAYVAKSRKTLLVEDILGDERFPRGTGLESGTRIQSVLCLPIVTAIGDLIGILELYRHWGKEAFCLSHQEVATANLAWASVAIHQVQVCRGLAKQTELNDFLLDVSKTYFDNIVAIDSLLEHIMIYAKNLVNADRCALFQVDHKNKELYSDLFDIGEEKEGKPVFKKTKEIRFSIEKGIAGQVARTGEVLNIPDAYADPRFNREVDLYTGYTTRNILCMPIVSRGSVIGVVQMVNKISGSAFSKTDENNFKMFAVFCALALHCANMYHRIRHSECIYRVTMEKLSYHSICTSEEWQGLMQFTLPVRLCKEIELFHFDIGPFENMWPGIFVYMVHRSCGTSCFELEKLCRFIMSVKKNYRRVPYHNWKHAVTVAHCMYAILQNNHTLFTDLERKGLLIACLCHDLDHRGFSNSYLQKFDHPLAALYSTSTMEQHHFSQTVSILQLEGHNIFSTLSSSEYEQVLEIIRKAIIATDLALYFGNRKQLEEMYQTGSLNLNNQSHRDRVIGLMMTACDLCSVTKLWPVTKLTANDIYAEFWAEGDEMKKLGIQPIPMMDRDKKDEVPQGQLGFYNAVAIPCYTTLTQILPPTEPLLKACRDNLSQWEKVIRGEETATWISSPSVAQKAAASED", "assay": "Fluorescence Polarization Assay: The fluorescence polarization assay for cyclic nucleotide phosphodiesterases was performed using an IMAP® FP kit supplied by Molecular Devices, Sunnyvale, Calif. (product # R8139). IMAP® technology has been applied previously to phosphodiesterase assays (Huang, W., et al., J. Biomol Screen, 2002, 7: 215). Assays were performed at room temperature in 384-well microtiter plates with an incubation volume of 20.2 μL. Solutions of test compounds were prepared in DMSO and serially diluted with DMSO to yield 8 μL of each of 10 solutions differing by 3-fold in concentration, at 32 serial dilutions per plate.", "units": {"Ki": "nM"}}
{"smiles": "Cc1ccc([C@H]2C[C@@H]2COc2nc(C)ncc2-c2cccc(C(F)(F)F)c2)nc1", "Ki": 0.83}
{"smiles": "Cc1ncc(-c2cnc(C(C)(C)O)cc2C)c(OC[C@H]2C[C@@H]2c2ccc3ccccc3n2)n1", "Ki": "< 0.01"}
{"smiles": "COc1ccc([C@H]2C[C@@H]2COc2nc(C)ncc2-c2ccc(Cl)nc2)nc1", "Ki": 1.3}
{"smiles": "Cc1ccc([C@H]2C[C@@H]2COc2nc(C)ncc2-c2cncnc2)nc1", "Ki": 2.56}
{"smiles": "Cc1ncc(-c2ccc(C(C)(C)O)nc2)c(OC[C@H]2C[C@@H]2c2ccc(F)cn2)n1", "Ki": 0.57}
